Values joined by “and” are separate entries in the source; they are usually repeats but may differ in a detail not shown here. Identical values can stand only once.
What was measured:
[1] = test system: human cystinotic fibroblasts (GM00008); assay: Cytotoxicity (MTT cell viability) in cystinotic fibroblast cell culture; format: cell-based; conditions: for cell viability (cytotoxicity) versus no treatment: 25, 50 or 75 μM, 48 and 72 hours (FIGS. 1 and 2), MTT; for increase of human cystinotic cell viability compared to cysteamine at the same concentration: 25 μM
Method: Appropriate concentrations of the NACA and diNACA were selected and incubated along with human cystinotic fibroblasts in media. […] Media was then removed, and cells were incubated in 0.5mg/ml MTT (3-(4,5-dimethylthiazol-2-yl)-2,5-diphenyltetrazolium bromide) reconstituted in media. A colorimetric assay used reduction of the yellow tetrazolium salt (MTT) to a purple formazan salt in order to measure cellular metabolic activity as a proxy for cell viability. Treated cells were incubated in MTT for 4 hours at 37° C., after which time intracellular purple formazan salt crystals were visible under a microscope. MTT solution was then removed, and DMSO was added to each well in order to lyse cells and dissolve the salt crystals. After 1 hour incubation at 37° C., absorbance was measured on a multiwell plate reader (Biotek FL6000) at 570 nm, and percentage cell viability calculated.

[2] = eyedrops, stored at −20° C. until dispensed, kept refrigerated once opened; cited from earlier work
[3] = biological target: T1, glutamate cysteine ligase (GCL, EC 6.3.2.2) (Homo sapiens, UniProt P48506); conditions: cited from earlier work
T1 sequence (P48506 1-637): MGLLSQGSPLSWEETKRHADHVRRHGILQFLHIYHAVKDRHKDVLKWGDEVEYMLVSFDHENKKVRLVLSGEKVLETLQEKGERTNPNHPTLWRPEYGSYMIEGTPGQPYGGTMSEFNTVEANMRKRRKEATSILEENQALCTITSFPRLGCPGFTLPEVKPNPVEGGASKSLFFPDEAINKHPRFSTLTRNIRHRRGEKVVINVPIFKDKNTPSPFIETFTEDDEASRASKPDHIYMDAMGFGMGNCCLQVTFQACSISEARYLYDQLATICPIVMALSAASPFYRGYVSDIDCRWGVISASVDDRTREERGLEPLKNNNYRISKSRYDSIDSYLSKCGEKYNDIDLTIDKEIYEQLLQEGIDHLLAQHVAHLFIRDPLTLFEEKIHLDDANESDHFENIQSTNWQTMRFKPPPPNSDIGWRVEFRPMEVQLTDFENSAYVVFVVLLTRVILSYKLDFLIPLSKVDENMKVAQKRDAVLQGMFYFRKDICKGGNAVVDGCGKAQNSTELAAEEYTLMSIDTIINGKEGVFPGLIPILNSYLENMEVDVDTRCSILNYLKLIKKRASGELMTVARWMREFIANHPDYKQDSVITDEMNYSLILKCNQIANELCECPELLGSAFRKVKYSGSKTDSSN
T1 sequence (P48507 1-274 partner): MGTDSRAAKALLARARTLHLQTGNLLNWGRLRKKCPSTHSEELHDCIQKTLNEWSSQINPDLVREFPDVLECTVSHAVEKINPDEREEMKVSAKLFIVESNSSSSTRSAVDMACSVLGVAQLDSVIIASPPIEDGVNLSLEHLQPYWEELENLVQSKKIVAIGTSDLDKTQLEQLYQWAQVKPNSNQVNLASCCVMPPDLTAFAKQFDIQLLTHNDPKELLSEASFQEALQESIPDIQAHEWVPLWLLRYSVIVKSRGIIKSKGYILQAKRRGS

[4] = test system: human cystinotic fibroblasts (GM00008); assay: Screening of cystine-depleting activity in human cystinotic cell-based model; conditions: 50 μM
Method: A specialized in vitro human cystinotic cell-based model was used for determining cystine content (Omran et al., 2011c). […]
The cells were recovered from storage at −80° C. and suspended in 100 μl […] N-ethyl malimide prepared in phosphate buffer (pH 7.6) followed by sonication for 10 seconds which was repeated 3 times with 20 second cooling intervals on ice. The solution was centrifuged at 800 G for 10 min at 4° C. (Biofuge primo R Heraeus centrifuge). To this cell supernatant (40 μl) was added 4 μl of 4M NaBH4 in 7:3 0.1 M NaOH/DMSO. After 5 min incubation at room temperature, 800 μl of sodium acetate buffer (pH 4.7) was added. A 5 μl volume of the diluted solution was added to 100 μl of 0.6mg/ml solution of Papain-SSCH3 in a 96 well plate and incubated for one hour at room temperature. A 100 μl volume of 4.9 mM L-benzoylarginine p-nitroanilide (L-BAPNA) solution in sodium acetate buffer (pH 4.0) was added to each well of the 96 well plate, gently mixed and incubated for further one hour at room temperature. Absorption at 410 nm was measured and the cysteine levels were calculated by comparison to known cysteine standard.
The protein concentration in every sample was measured according to Bradford method. Briefly, 200 μl of Bradford reagent was added to 5 μl of cell supernatant in each well of a 96 well plate and incubated for 5 minutes at room temperature and the absorption at 595 nm was measured. The protein concentration was calculated using a range of concentrations of bovine serum albumin as a standard. The cysteine levels were determined following normalization to μM cysteine per mg of protein.

[5] = NACA in aqueous humor after topical ocular administration; format: in vivo; conditions: rabbit eyes, 1% topical ocular
Method: The thiol moiety of NAC, NACA, diNACA and their respective internal standards oxidizes quickly in plasma through formation of disulfides. In order to determine total NAC and total NACA levels in plasma, tris(2-carboxyethyl)phosphine (TCEP) is added during the extraction to reduce disulfide bonds (King et al., 2019). Ammonium bicarbonate is added to control sample pH near neutral, as TCEP will otherwise acidify the aliquoted samples and hinder derivatization. The free analyte is then derivatized to a stable thioether using 2-chloro-1-methylpyridinium iodide (CMPI). N-acetyl-L-cysteine is used as the reference standard. The assay would not discern the enantiomer, N-acetyl-D-cysteine, if present. A sample volume of 25.0 μL is aliquoted into a 1.2 mL 96-well plate to which is added, in sequence, 25.0 μL internal standard solution (1000 ng/mL NAC-D3 and 1000 ng/mL NACA-D3 in water), 50.0 μL of ammonium bicarbonate (100 mM), 5.0 μL CMPI (60 mM in water), and 5.0 μL of TCEP (60 mM in water). Samples are allowed to react for 30 minutes. To precipitate proteins, 500 μL of acetonitrile is then added to all samples. The plate is covered and the mixtures are shaken and centrifuged. […]
Samples were analyzed on a Waters Acquity liquid chromatograph interfaced with a Thermo Scientific TSQ Vantage triple quadrupole mass spectrometer with ESI ionization (King et al., 2019). […]

[6] = test system: rabbit eyes; assay: Ophthalmic tolerability, daily Draize scores after topical ocular administration; format: in vivo; conditions: rabbits, 1% in prototype vehicle, per animal and eye; for Daily Draize Scores for Chemosis, Day 1 / Daily Draize Scores for Discharge, Day 1 / Daily Draize Scores for Hyperemia, Day 1 / Daily Draize Scores for Chemosis, Day 2 / Daily Draize Scores for Discharge, Day 2 / Daily Draize Scores for Hyperemia, Day 2 / Daily Draize Scores for Chemosis, Day 3 / Daily Draize Scores for Discharge, Day 3 / Daily Draize Scores for Hyperemia, Day 3 / Daily Draize Scores for Chemosis, Day 4 / Daily Draize Scores for Discharge, Day 4 / Daily Draize Scores for Hyperemia, Day 4 / Daily Draize Scores for Chemosis, Day 5 / Daily Draize Scores for Discharge, Day 5 / Daily Draize Scores for Hyperemia, Day 5 / Daily Draize Scores for Chemosis, Day 6 / Daily Draize Scores for Hyperemia, Day 6 / Daily Draize Scores for Discharge, Day 6: bilateral topical four times a day; for Daily Draize Scores for Chemosis, Day 7 / Daily Draize Scores for Hyperemia, Day 7 / Daily Draize Scores for Discharge, Day 7 / Daily Draize Scores for Chemosis, Day B / Daily Draize Scores for Discharge, Day B / Daily Draize Scores for Hyperemia, Day B: bilateral topical; for Daily Draize Scores for Chemosis, Day 7 / Daily Draize Scores for Hyperemia, Day 7 / Daily Draize Scores for Discharge, Day 7: once on Day 7; for Daily Draize Scores for Chemosis, Day B / Daily Draize Scores for Discharge, Day B / Daily Draize Scores for Hyperemia, Day B: (baseline)
Method: To simulate topical ocular exposure to an ophthalmic insert containing AGENT, prototype ophthalmic formulations were prepared containing either 1% NPI-001, 1% diNACA, 1% NAC or vehicle and tested to evaluate ocular tolerability. Three rabbits per group were administered 1% NPI-001, 1% di-NAC, 1% NAC in a prototype vehicle, via bilateral topical administration four times a day for 6 days, and once on Day 7.

Row | NACA in aqueous humor [5] | Compound | cell viability (cytotoxicity) versus no treatment [1] | relative cystine concentration as percent of control, comparison with cysteamine ([4]; 6 hours (FIG. 3)) | relative cystine concentration as percent of control, comparison with cysteamine ([4]; 24 hours (FIG. 4)) | relative cystine concentration as percent of control, comparison with cysteamine ([4]; 48 hours (FIG. 5)) | Daily Draize Scores for Chemosis, Day 1 [6] | Daily Draize Scores for Discharge, Day 1 [6] | Daily Draize Scores for Hyperemia, Day 1 [6] | Daily Draize Scores for Chemosis, Day 2 [6] | Daily Draize Scores for Discharge, Day 2 [6] | Daily Draize Scores for Hyperemia, Day 2 [6] | Daily Draize Scores for Chemosis, Day 3 [6] | Daily Draize Scores for Discharge, Day 3 [6] | Daily Draize Scores for Hyperemia, Day 3 [6] | Daily Draize Scores for Chemosis, Day 4 [6] | Daily Draize Scores for Discharge, Day 4 [6] | Daily Draize Scores for Hyperemia, Day 4 [6] | Daily Draize Scores for Chemosis, Day 5 [6] | Daily Draize Scores for Discharge, Day 5 [6] | Daily Draize Scores for Hyperemia, Day 5 [6] | also measured
1 | – | NCCS [cysteamine, reference compound] | increased cell viability | – | – | – | – | – | – | – | – | – | – | – | – | – | – | – | – | – | – | shelf life [2]: 1 week
2 | – | N[C@@H](CS)C(=O)O [cysteine, L-cysteine] | – | – | – | – | – | – | – | – | – | – | – | – | – | – | – | – | – | – | – | Km [3]: 100 to 300 µM
3 | – | N[C@@H](CCC(=O)N[C@@H](CS)C(=O)NCC(=O)O)C(=O)O [GSH, c-L-glutamyl-L-cysteinyl-glycine] | – | – | – | – | – | – | – | – | – | – | – | – | – | – | – | – | – | – | – | Ki ([3]; read-out: Ki, nonallosteric competitive inhibition of GCL): 2300 µM
4 | detectable | CC(=O)NC(CS)C(N)=O (stereo not shown) | increased cell viability | statistically superior to cysteamine | statistically superior | statistically superior to cysteamine | 0 | 0 | 0 | 0 | 0 | 0 | 0 | 0 | 0 | 0 | 0 | 0 | 0 | 0 | 0 | increase of human cystinotic cell viability compared to cysteamine at the same concentrations ([1]; all concentrations (25, 50, 75 μM), 72 hours (FIG. 2)): statistically superior to cysteamine; relative cystine concentration as percent of control, comparison with cysteamine ([4]; 72 hours (FIG. 6)): superior to cysteamine; Daily Draize Scores for Chemosis, Day 6 [6]: 0; Daily Draize Scores for Hyperemia, Day 6 [6]: 0; Daily Draize Scores for Discharge, Day 6 ([6]; listed as NPI-001): 0.5 and 0 (5×); Daily Draize Scores for Chemosis, Day 7 [6]: 0; Daily Draize Scores for Hyperemia, Day 7 [6]: 0; Daily Draize Scores for Discharge, Day 7 ([6]; listed as NPI-001): 0 (4×) and 0.5 (2×); Daily Draize Scores for Chemosis, Day B [6]: 0; Daily Draize Scores for Discharge, Day B [6]: 0; Daily Draize Scores for Hyperemia, Day B [6]: 0
5 | detectable | CC(=O)NC(CSSCC(NC(C)=O)C(N)=O)C(N)=O [diNACA, (2R,2R′)-3,3′-disulfanediyl bis(2-acetamidopropanamide)] | increased cell viability | statistically superior to cysteamine | superior to cysteamine | statistically superior to cysteamine | 0 | 0 | 0 | 0 | 0 | 0 | 0 | 0 | 0 | 0 | 0 (3×) and 1 (2×) and 0.5 | 0 | 0 | 0 | 0 | increase of human cystinotic cell viability compared to cysteamine at the same concentration ([1]; 48 hours (FIG. 1)): statistically superior to cysteamine; increase of human cystinotic cell viability compared to cysteamine at the same concentration ([1]; 72 hours (FIG. 2)): statistically superior to cysteamine; depletion of cystine compared to control ([4]; 72 hours (FIG. 6)): 20%; Daily Draize Scores for Chemosis, Day 6 [6]: 0; Daily Draize Scores for Discharge, Day 6 [6]: 0 (4×) and 0.5 (2×); Daily Draize Scores for Hyperemia, Day 6 [6]: 0; Daily Draize Scores for Chemosis, Day 7 [6]: 0; Daily Draize Scores for Discharge, Day 7 [6]: 0 (5×) and 0.5; Daily Draize Scores for Hyperemia, Day 7 [6]: 0; Daily Draize Scores for Chemosis, Day B [6]: 0; Daily Draize Scores for Discharge, Day B [6]: 0; Daily Draize Scores for Hyperemia, Day B [6]: 0

From US20210378993A1 (Nacuity Pharmaceuticals, Inc., priority 2020, published 2021)
